For 20 molecules, T/C results are on record in PubChem BioAssay AID256 (DTP/NCI, 2004).

Inconclusive results and toxic doses are left out.

The test system of this assay is CD2F1 mice, L1210 leukemia ip, survival T/C. The assay can be described thus: NCI In Vivo Anticancer Drug Screen. Data for tumor model L1210 Leukemia (intraperitoneal) in CD2F1 (CDF1) mice. To be noted: endpoint: mean survival time, higher = longer survival. An outline of the steps:
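Transplantable tumor in mice; compound-treated vs vehicle-treated groups. Read-out = treated/control ratio of the measured endpoint.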

Where [1] appears, read: dose: 100.0 mg/kg/injection, schedule: Q01DX009 (ip), vehicle: saline with Tween-80.
The mark [2] stands for this setting: dose: 100.0 mg/kg/injection, schedule: Q04DX003 (ip), vehicle: saline with Tween-80.
The mark [3] stands for this setting: dose: 200.0 mg/kg/injection, schedule: Q01DX009 (ip), vehicle: saline with Tween-80.
Setting [4] is: dose: 200.0 mg/kg/injection, schedule: Q04DX003 (ip), vehicle: saline with Tween-80.
The mark [5] stands for this setting: dose: 400.0 mg/kg/injection, schedule: Q01DX009 (ip), vehicle: saline with Tween-80.
[6] abbreviates: dose: 400.0 mg/kg/injection, schedule: Q04DX003 (ip), vehicle: saline with Tween-80.
The mark [7] stands for this setting: dose: 100.0 mg/kg/injection, schedule: Q04DX003 (ip), vehicle: saline.
[8] abbreviates: dose: 200.0 mg/kg/injection, schedule: Q04DX003 (ip), vehicle: saline.
Where [9] appears, read: dose: 50.0 mg/kg/injection, schedule: Q01DX009 (ip), vehicle: saline with Tween-80.
The mark [10] stands for this setting: dose: 100.0 mg/kg/injection, schedule: Q01DX001 (ip), vehicle: saline with Tween-80.
The mark [11] stands for this setting: dose: 200.0 mg/kg/injection, schedule: Q01DX001 (ip), vehicle: saline with Tween-80.
Where [12] appears, read: dose: 400.0 mg/kg/injection, schedule: Q01DX001 (ip), vehicle: saline with Tween-80.

`COc1cc([C@@H]2c3cc4c(c(O)c3C[C@H]3COC(=O)[C@@H]32)OCO4)cc(OC)c1O`: the T/C runs as follows: (dose: 125.0 micrograms/kg/injection, schedule: Q01DX009 (ip), vehicle: saline) 102 % of control; (dose: 250.0 micrograms/kg/injection, schedule: Q01DX009 (ip), vehicle: saline) 108 % of control; (dose: 500.0 micrograms/kg/injection, schedule: Q01DX009 (ip), vehicle: saline) 110 % of control; (dose: 1000.0 micrograms/kg/injection, schedule: Q01DX009 (ip), vehicle: saline) 122 % of control; (dose: 2000.0 micrograms/kg/injection, schedule: Q01DX009 (ip), vehicle: saline) 118 % of control.
For the molecule `CCCCCCCCCCCCCCCCCCC#N`, the T/C is 100 % of control under setting [1]; 92 % of control under setting [2]; 96 % of control under setting [3]; 98 % of control under setting [4]; 93 % of control under setting [5]; 95 % of control under setting [6].
For the molecule `CCNc1cc(Cl)c(C(=O)O)cc1[N+](=O)[O-]`, the T/C is, setting by setting: under setting [7], 105 % of control; under setting [8], 110 % of control; (dose: 400.0 mg/kg/injection, schedule: Q04DX003 (ip), vehicle: saline) 115 % of control.
For the molecule `Cc1ccc(NC(=O)OCCOc2ccc(Cl)cc2)cc1C`, the T/C under setting [9] was 96 % of control, the T/C under setting [1] was 92 % of control and the T/C under setting [3] was 87 % of control.
As to `CC(=O)NC(C=O)C(O)C1OC(c2ccccc2)OCC1O` (centres undefined), the T/C is 97 % of control under setting [10]; 95 % of control under setting [1]; 97 % of control under setting [11]; 98 % of control under setting [3]; 94 % of control under setting [12]; 92 % of control under setting [5].
As for `Cc1ccc(C(=O)Nc2ncn(C3CC(O)C(CO)O3)c(=O)n2)cc1` (centres undefined), the T/C is 116 % of control (dose: 1.56 mg/kg/injection, schedule: Q01DX005 (ip), vehicle: saline with Tween-80); 154 % of control (dose: 3.13 mg/kg/injection, schedule: Q01DX005 (ip), vehicle: saline with Tween-80); 276 % of control (dose: 6.25 mg/kg/injection, schedule: Q01DX005 (ip), vehicle: saline with Tween-80); 244 % of control (dose: 12.5 mg/kg/injection, schedule: Q01DX005 (ip), vehicle: saline with Tween-80); 92 % of control (dose: 50.0 mg/kg/injection, schedule: Q01DX005 (ip), vehicle: saline with Tween-80).
As to `Cc1ccc(CC(F)F)cc1`, the T/C is 101 % of control under setting [10]; 98 % of control (dose: 100.0 mg/kg/injection, schedule: Q04DX003 (ip), vehicle: saline sonified); 101 % of control under setting [11]; 96 % of control (dose: 200.0 mg/kg/injection, schedule: Q04DX003 (ip), vehicle: saline sonified); 103 % of control under setting [12]; 96 % of control (dose: 400.0 mg/kg/injection, schedule: Q04DX003 (ip), vehicle: saline sonified).
As to `Cc1cc(N=Nc2ccccc2)cc(C)c1N`, the T/C reads like this: under setting [1], 96 % of control; under setting [2], 97 % of control; under setting [3], 102 % of control; under setting [4], 98 % of control; under setting [5], 98 % of control; under setting [6], 110 % of control.
As to `C[CH2][Sn]1([CH2]C)[O]C2C(CO)OC(n3ccc(N)nc3=O)C2[O]1` (centres undefined), the T/C is 97 % of control (dose: 1.56 mg/kg/injection, schedule: Q01DX005 (ip), vehicle: water); 111 % of control (dose: 3.13 mg/kg/injection, schedule: Q01DX005 (ip), vehicle: water); 100 % of control (dose: 6.25 mg/kg/injection, schedule: Q01DX005 (ip), vehicle: water); 103 % of control (dose: 12.5 mg/kg/injection, schedule: Q01DX005 (ip), vehicle: other); 105 % of control (dose: 12.5 mg/kg/injection, schedule: Q01DX005 (ip), vehicle: water).
For the molecule `CCOC(=O)CCC(NC(=O)c1ccc(CN(C)Cc2cnc3nc(N)nc(N)c3n2)cc1)C(=O)OCC` (centres undefined), the T/C by setting is: (dose: 1.0 mg/kg/injection, schedule: Q01DX009 (ip), vehicle: Klucel (hydroxypropylcellulose) (HPC)) 100 % of control; (dose: 10.0 mg/kg/injection, schedule: Q01DX009 (ip), vehicle: Klucel (hydroxypropylcellulose) (HPC)) 108 % of control; (dose: 25.0 mg/kg/injection, schedule: Q01DX009 (ip), vehicle: Klucel (hydroxypropylcellulose) (HPC)) 115 % of control.
On to `CC1=CC(=O)c2ccccc2C1=O`, for which the T/C is, setting by setting: (dose: 9.0 mg/kg/injection, schedule: Q01DX009 (ip), vehicle: other) 100 % of control; (dose: 13.5 mg/kg/injection, schedule: Q01DX009 (ip), vehicle: other) 114 % of control; (dose: 20.0 mg/kg/injection, schedule: Q01DX001 (ip), vehicle: other) 95 % of control; (dose: 20.0 mg/kg/injection, schedule: Q01DX009 (ip), vehicle: other) 97 % of control; (dose: 30.0 mg/kg/injection, schedule: Q01DX009 (ip), vehicle: other) 97 % of control; (dose: 40.0 mg/kg/injection, schedule: Q01DX001 (ip), vehicle: other) 104 % of control. Moreover, the T/C (dose: 60.0 mg/kg/injection, schedule: Q01DX001 (ip), vehicle: other) was 104 % of control and the T/C (dose: 90.0 mg/kg/injection, schedule: Q01DX001 (ip), vehicle: other) is 104 % of control.
Turning to `CC(C)(CCC(=O)O)C(=O)O`, the T/C under setting [9] was 100 % of control; the T/C under setting [1] was 98 % of control; the T/C under setting [7] was 102 % of control; the T/C under setting [3] was 98 % of control; the T/C under setting [8] is 96 % of control.
For the molecule `O=[N+]([O-])c1ccc(Cl)c(CCl)c1`, the T/C reads like this: under setting [1], 94 % of control; under setting [2], 100 % of control; under setting [3], 93 % of control; under setting [4], 100 % of control; under setting [6], 102 % of control.
As to `CC1=C2C3OC(=O)C(C)C3CCC2(C)C=CC1=O` (centres undefined), the T/C reads like this: (dose: 100.0 mg/kg/injection, schedule: Q04DX002 (ip), vehicle: saline with Tween-80) 116 % of control; (dose: 200.0 mg/kg/injection, schedule: Q04DX002 (ip), vehicle: saline with Tween-80) 116 % of control.
With `NC(CS(=O)c1ccc([N+](=O)[O-])cc1Cl)C(=O)O` (centres undefined), the T/C under setting [1] was 96 % of control.
As to `CCN(CC)c1ccc2c(-c3ccccc3C(=O)O)c3ccc(=[N+](CC)CC)cc-3oc2c1`, the T/C by setting is: (dose: 5.0 mg/kg/injection, schedule: Q04DX003 (ip), vehicle: saline with Tween-80) 105 % of control; (dose: 10.0 mg/kg/injection, schedule: Q04DX003 (ip), vehicle: saline with Tween-80) 105 % of control; (dose: 20.0 mg/kg/injection, schedule: Q04DX003 (ip), vehicle: saline with Tween-80) 102 % of control; under setting [1], 101 % of control; under setting [3], 103 % of control; under setting [5], 100 % of control.
As for `N#C/C(=C\c1ccc(-c2ccccc2)cc1)c1ccccc1`, the T/C was 86 % of control under setting [4] and 95 % of control under setting [6].
With `Nc1ncnc2nc(CCCCc3ccccc3)[nH]c12`, the T/C (dose: 3.0 mg/kg/injection, schedule: Q01DX009 (ip), vehicle: saline with Tween-80) was 95 % of control; the T/C (dose: 6.0 mg/kg/injection, schedule: Q01DX009 (ip), vehicle: saline with Tween-80) is 106 % of control; the T/C (dose: 12.0 mg/kg/injection, schedule: Q01DX009 (ip), vehicle: saline with Tween-80) was 104 % of control.
For `CCCCN1C(=O)c2c(Cl)c(Cl)c(Cl)c(Cl)c2C1=O`, the T/C is 90 % of control (dose: 25.0 mg/kg/injection, schedule: Q04DX002 (ip), vehicle: other); 90 % of control (dose: 50.0 mg/kg/injection, schedule: Q04DX002 (ip), vehicle: other); 86 % of control (dose: 100.0 mg/kg/injection, schedule: Q04DX002 (ip), vehicle: other).
On to `C=CCNC(=S)NCCO`, for which the T/C is, setting by setting: under setting [9], 97 % of control; (dose: 50.0 mg/kg/injection, schedule: Q04DX003 (ip), vehicle: saline with Tween-80) 111 % of control; under setting [1], 100 % of control; under setting [2], 103 % of control; under setting [3], 94 % of control; under setting [4], 103 % of control.
